Reference: US20240018145A1, “[…]-DEPENDENT EN[…] TREATING OR […]” (priority 2020, published 2024)

Test system: FLU A (PR/8/34)
Test: Flu A Neuraminidase Antiviral Assay
Assay type: cell-based

| Structure (SMILES) | EC50 [nM] |
| --- | --- |
| CN1C(=O)c2c(O)c(=O)ccn2N2C(c3ccccc3)C(c3cc(F)c(F)cc3F)CCC12 (single isomer, unassigned) [Compound 86D, 7-hydroxy-5-methyl-1-phenyl-2-(2,4,5-trifluorophenyl)-1,2,3,4,4a,5-hexahydrodipyrido[1,2-b:2′,1′-f][1,2,4]triazine-6,8-dione] | > 810 |
| Cc1ccccc1C1C(CC(F)(F)F)CCC2(C)N(C)C(=O)c3c(O)c(=O)ccn3N12 (single isomer, unassigned) [Compound 87A, 7-hydroxy-4a,5-dimethyl-1-(o-tolyl)-2-(2,2,2-trifluoroethyl)-1,2,3,4,4a,5-hexahydrodipyrido[1,2-b:2′,1′-f][1,2,4]triazine-6,8-dione] | > 810 |
| Cc1ccccc1C1C(CC(F)(F)F)CCC2(C)N(C)C(=O)c3c(O)c(=O)ccn3N12 (single isomer, unassigned) [Compound 87B, 7-hydroxy-4a,5-dimethyl-1-(o-tolyl)-2-(2,2,2-trifluoroethyl)-1,2,3,4,4a,5-hexahydrodipyrido[1,2-b:2′,1′-f][1,2,4]triazine-6,8-dione] | 3.6 |
| Cc1ccccc1C1C(CC2CC2(F)F)CCC2N(C)C(=O)c3c(O)c(=O)ccn3N12 (single isomer, unassigned) [Compound 88A] | > 810 |
| Cc1ccccc1C1C(CC2CC2(F)F)CCC2N(C)C(=O)c3c(O)c(=O)ccn3N12 (single isomer, unassigned) [Compound 88B] | > 810 |
| Cc1ccccc1C1C(CC2CC2(F)F)CCC2N(C)C(=O)c3c(O)c(=O)ccn3N12 (single isomer, unassigned) [Compound 88C] | 4 |
| Cc1ccccc1C1C(CC2CC2(F)F)CCC2N(C)C(=O)c3c(O)c(=O)ccn3N12 (single isomer, unassigned) [Compound 88D] | 2.9 |
| CN1C(=O)c2c(O)c(=O)ccn2N2C(c3ccccc3Br)C(CC(F)(F)F)CCC12 (single isomer, unassigned) [Compound 89A, 1-(2-bromophenyl)-7-hydroxy-5-methyl-2-(2,2,2-trifluoroethyl)-1,2,3,4,4a,5-hexahydrodipyrido[1,2-b:2′,1′-f][1,2,4]triazine-6,8-dione] | 298 |
| CN1C(=O)c2c(O)c(=O)ccn2N2C(c3ccccc3Br)C(CC(F)(F)F)CCC12 (single isomer, unassigned) [Compound 89B, 1-(2-bromophenyl)-7-hydroxy-5-methyl-2-(2,2,2-trifluoroethyl)-1,2,3,4,4a,5-hexahydrodipyrido[1,2-b:2′,1′-f][1,2,4]triazine-6,8-dione] | 2.4 |
| O=C1c2c(O)c(=O)ccn2N2C(c3ccccc3)C(CC3(C(F)(F)F)CC3)CCC2N1CC1CC1 (single isomer, unassigned) [Compound 90A, 5-(cyclopropylmethyl)-7-hydroxy-1-phenyl-2-((1-(trifluoromethyl)cyclopropyl)methyl)-1,2,3,4,4a,5-hexahydrodipyrido[1,2-b:2′,1′-f][1,2,4]triazine-6,8-dione] | 772 |
| O=C1c2c(O)c(=O)ccn2N2C(c3ccccc3)C(CC3(C(F)(F)F)CC3)CCC2N1CC1CC1 (single isomer, unassigned) [Compound 90B, 5-(cyclopropylmethyl)-7-hydroxy-1-phenyl-2-((1-(trifluoromethyl)cyclopropyl)methyl)-1,2,3,4,4a,5-hexahydrodipyrido[1,2-b:2′,1′-f][1,2,4]triazine-6,8-dione] | 29.3 |
| Cc1ccccc1C1C(c2ccc(F)c(F)c2)CCC2N(C)C(=O)c3c(O)c(=O)ccn3N12 (single isomer, unassigned) [Compound 91A, 2-(3,4-difluorophenyl)-7-hydroxy-5-methyl-1-(o-tolyl)-1,2,3,4,4a,5-hexahydrodipyrido[1,2-b:2′,1′-f][1,2,4]triazine-6,8-dione] | 485 |
| Cc1ccccc1C1C(c2ccc(F)c(F)c2)CCC2N(C)C(=O)c3c(O)c(=O)ccn3N12 (single isomer, unassigned) [Compound 91B, 2-(3,4-difluorophenyl)-7-hydroxy-5-methyl-1-(o-tolyl)-1,2,3,4,4a,5-hexahydrodipyrido[1,2-b:2′,1′-f][1,2,4]triazine-6,8-dione] | 7.3 |
| CCCC1CCC2N(C)C(=O)c3c(O)c(=O)ccn3N2C1c1ccccc1C (single isomer, unassigned) [Compound 92A, 7-hydroxy-5-methyl-2-propyl-1-(o-tolyl)-1,2,3,4,4a,5-hexahydrodipyrido[1,2-b:2′,1′-f][1,2,4]triazine-6,8-dione] | 4570 |
| CCCC1CCC2N(C)C(=O)c3c(O)c(=O)ccn3N2C1c1ccccc1C (single isomer, unassigned) [Compound 92B, 7-hydroxy-5-methyl-2-propyl-1-(o-tolyl)-1,2,3,4,4a,5-hexahydrodipyrido[1,2-b:2′,1′-f][1,2,4]triazine-6,8-dione] | 3.3 |
| CCN1C(=O)c2c(O)c(=O)ccn2N2C(c3ccccc3C)C(CC(F)(F)F)CCC12 (single isomer, unassigned) [Compound 93A, 5-ethyl-7-hydroxy-1-(o-tolyl)-2-(2,2,2-trifluoroethyl)-1,2,3,4,4a,5-hexahydrodipyrido[1,2-b:2′,1′-f][1,2,4]triazine-6,8-dione] | 475 |
| CCN1C(=O)c2c(O)c(=O)ccn2N2C(c3ccccc3C)C(CC(F)(F)F)CCC12 (single isomer, unassigned) [Compound 93B, 5-ethyl-7-hydroxy-1-(o-tolyl)-2-(2,2,2-trifluoroethyl)-1,2,3,4,4a,5-hexahydrodipyrido[1,2-b:2′,1′-f][1,2,4]triazine-6,8-dione] | 2.9 |
| CCN1C(=O)c2c(O)c(=O)ccn2N2C(c3ccccc3)C(c3ccc(F)c(F)c3)CCC12 (single isomer, unassigned) [Compound 94A, 2-(3,4-difluorophenyl)-5-ethyl-7-hydroxy-1-phenyl-1,2,3,4,4a,5-hexahydrodipyrido[1,2-b:2′,1′-f][1,2,4]triazine-6,8-dione] | 397 |
| CCN1C(=O)c2c(O)c(=O)ccn2N2C(c3ccccc3)C(c3ccc(F)c(F)c3)CCC12 (single isomer, unassigned) [Compound 94B, 2-(3,4-difluorophenyl)-5-ethyl-7-hydroxy-1-phenyl-1,2,3,4,4a,5-hexahydrodipyrido[1,2-b:2′,1′-f][1,2,4]triazine-6,8-dione] | 8.6 |
| Cc1ccccc1C1C(CCC(F)(F)F)CCC2N(C)C(=O)c3c(O)c(=O)ccn3N12 (single isomer, unassigned) [Compound 95A, 7-hydroxy-5-methyl-1-(o-tolyl)-2-(3,3,3-trifluoropropyl)-1,2,3,4,4a,5-hexahydrodipyrido[1,2-b:2′,1′-f][1,2,4]triazine-6,8-dione] | 137 |
| Cc1ccccc1C1C(CCC(F)(F)F)CCC2N(C)C(=O)c3c(O)c(=O)ccn3N12 (single isomer, unassigned) [Compound 95B, 7-hydroxy-5-methyl-1-(o-tolyl)-2-(3,3,3-trifluoropropyl)-1,2,3,4,4a,5-hexahydrodipyrido[1,2-b:2′,1′-f][1,2,4]triazine-6,8-dione] | 7.5 |
| CCCC1CCC2N(CC)C(=O)c3c(O)c(=O)ccn3N2C1c1ccccc1F (single isomer, unassigned) [Compound 96A, 5-ethyl-1-(2-fluorophenyl)-7-hydroxy-2-propyl-1,2,3,4,4a,5-hexahydrodipyrido[1,2-b:2′,1′-f][1,2,4]triazine-6,8-dione] | > 810 |
